IC50, DC50 and Dmax data for 13 molecules are collected here from patent publication US12139492B2 (Endotarget Inc., priority 2021, dated 2024).

Assay [1] relates to Mino cells. Briefly: Antiproliferative effect, MTS cell viability assay, Mino cells. Format: cell-based. As to conditions: Homo sapiens, MINO, Mino mantle cell lymphoma cells; read-out: IC50 (anti-proliferation) Mino cells. In short, it runs like this: (§1)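 Mino and JeKo-1 mantle B-cell lymphoma lines were exposed to compound at 0, 0.001, 0.01, 0.1, 1 and 10 μM for 72 h. Viability was read by MTS reduction to formazan, measured as absorbance at 490 nm.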

Assay [2] concerns JeKo-1 cells. Briefly: Antiproliferative effect, MTS cell viability assay, JeKo-1 cells. Format: cell-based. The following applies: Homo sapiens; JeKo-1 mantle cell lymphoma cells; read-out: IC50 (anti-proliferation) JeKO-1 cells. In short, it runs like this: as §1
For orientation: Tetrazolium assays rely on reduction of a dye to a coloured formazan, in cell work by metabolically active cells.

For assay [3], the target named is BTK (Homo sapiens, UniProt Q06187). Briefly: Degradation of BTK protein in Namalwa cells (Western blot; DC50, Dmax). As to conditions: for DC50: read-out: DC50 (BTK degradation), concentration giving 50% reduction of BTK expression level, cell line not given; for Dmax: read-out: Dmax (BTK degradation). For orientation: A western blot detects proteins with antibodies after separation by electrophoresis.
Chain of BTK (Q06187 whole entry): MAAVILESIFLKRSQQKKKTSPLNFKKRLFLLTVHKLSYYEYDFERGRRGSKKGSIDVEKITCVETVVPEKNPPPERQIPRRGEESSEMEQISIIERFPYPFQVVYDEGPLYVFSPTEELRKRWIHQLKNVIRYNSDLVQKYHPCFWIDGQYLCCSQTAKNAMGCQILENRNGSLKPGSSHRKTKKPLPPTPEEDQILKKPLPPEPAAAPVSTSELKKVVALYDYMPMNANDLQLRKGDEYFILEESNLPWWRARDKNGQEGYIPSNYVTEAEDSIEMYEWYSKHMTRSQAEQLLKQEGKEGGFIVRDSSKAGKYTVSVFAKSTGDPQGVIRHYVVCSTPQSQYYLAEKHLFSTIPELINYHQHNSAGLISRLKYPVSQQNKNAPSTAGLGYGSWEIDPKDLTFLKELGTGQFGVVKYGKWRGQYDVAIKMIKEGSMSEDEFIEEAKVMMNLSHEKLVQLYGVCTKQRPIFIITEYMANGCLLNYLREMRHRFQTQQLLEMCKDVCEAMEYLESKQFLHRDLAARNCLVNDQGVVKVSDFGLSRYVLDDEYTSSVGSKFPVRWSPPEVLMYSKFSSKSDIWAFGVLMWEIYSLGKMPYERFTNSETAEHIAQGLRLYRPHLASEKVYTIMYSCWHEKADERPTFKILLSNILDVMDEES

As to `NC(=O)c1c(-c2ccc(Oc3ccccc3)cc2)nn2c1NCC[C@H]2C1CCN(CC2CCN(C(=O)N3CCC(N4CCN(c5ccc6c(c5)C(=O)N(C5CCC(=O)NC5=O)C6=O)CC4)CC3)CC2)CC1` (stereo partly drawn) [Compound 403, (7S)-7-(1-((1-(4-(4-(2-(2,6-dioxopiperidin-3-yl)-1,3-dioxoisoindolin-5-yl)piperazin-1-yl)piperidine-1-carbonyl)piperidin-4-yl)methyl)piperidin-4-yl)-2-(4-phenoxyphenyl)-4,5,6,7-tetrahydropyrazolo[1,5-a]pyrimidine-3-carboxamide], the IC50 in assay [1] was < 1000 nM. Also, the IC50 in assay [2] was < 1000 nM. For the same molecule, in assay [3], the DC50 lay within 10 to 50 nM and the Dmax is > 90%.

Regarding `NC(=O)c1c(-c2ccc(Oc3ccccc3)cc2)nn2c1NCC[C@H]2C1CCN(CC2CCN(C(=O)N3CCC(N4CCN(c5ccc6c(c5)CN(C5CCC(=O)NC5=O)C6=O)CC4)CC3)CC2)CC1` (stereo partly drawn) [Compound 404, (7S)-7-(1-((1-(4-(4-(2-(2,6-dioxopiperidin-3-yl)-1-oxoisoindolin-5-yl)piperazin-1-yl)piperidine-1-carbonyl)piperidin-4-yl)methyl)piperidin-4-yl)-2-(4-phenoxyphenyl)-4,5,6,7-tetrahydropyrazolo[1,5-a]pyrimidine-3-carboxamide], the IC50 in assay [1] and in assay [2] was < 1000 nM each time. For the same molecule, the DC50 in assay [3] is < 10 nM. In addition, the Dmax in assay [3] is > 90%.

Regarding `NC(=O)c1c(-c2ccc(Oc3ccccc3)cc2)nn2c1NCC[C@H]2C1CCN(CC2CCN(C(=O)N3CCC(C4CCN(c5ccc6c(c5)C(=O)N(C5CCC(=O)NC5=O)C6=O)CC4)CC3)CC2)CC1` (stereo partly drawn) [Compound 405, (7S)-7-(1-((1-(1′-(2-(2,6-dioxopiperidin-3-yl)-1,3-dioxoisoindolin-5-yl)-[4,4′-bipiperidine]-1-carbonyl)piperidin-4-yl)methyl)piperidin-4-yl)-2-(4-phenoxyphenyl)-4,5,6,7-tetrahydropyrazolo[1,5-a]pyrimidine-3-carboxamide], the IC50 in assay [1] is < 1000 nM. Also, the IC50 in assay [2] fell in the range of 1000 to 10000 nM. In assay [3], the DC50 was in the range of 10 to 50 nM and the maximal degradation (Dmax) is > 90%.

Consider `NC(=O)c1c(-c2ccc(Oc3ccccc3)cc2)nn2c1NCC[C@H]2C1CCN(CC2CCN(C(=O)N3CCC(C4CCN(c5ccc6c(c5)CN(C5CCC(=O)NC5=O)C6=O)CC4)CC3)CC2)CC1` (stereo partly drawn) [Compound 406, (7S)-7-(1-((1-(1′-(2-(2,6-dioxopiperidin-3-yl)-1-oxoisoindolin-5-yl)-[4,4′-bipiperidine]-1-carbonyl)piperidin-4-yl)methyl)piperidin-4-yl)-2-(4-phenoxyphenyl)-4,5,6,7-tetrahydropyrazolo[1,5-a]pyrimidine-3-carboxamide], for which the IC50 is < 1000 nM in assay [1] and 1000 to 10000 nM in assay [2]. Also, in assay [3], the 50% degradation concentration (DC50) was < 10 nM. In assay [3], the Dmax is > 90%.

On to `NC(=O)c1c(-c2ccc(Oc3ccccc3)cc2)nn2c1NCC[C@H]2C1CCN(CC2CCN(C(=O)N3CCC(N4CCC(c5ccc6c(c5)C(=O)N(C5CCC(=O)NC5=O)C6=O)CC4)CC3)CC2)CC1` (stereo partly drawn) [Compound 407, (7S)-7-(1-((1-(4-(2-(2,6-dioxopiperidin-3-yl)-1,3-dioxoisoindolin-5-yl)-[1,4′-bipiperidine]-1′-carbonyl)piperidin-4-yl)methyl)piperidin-4-yl)-2-(4-phenoxyphenyl)-4,5,6,7-tetrahydropyrazolo[1,5-a]pyrimidine-3-carboxamide], for which the results for the IC50 in assay [1] and in assay [2] were 1000 to 10000 nM and > 10000 nM, respectively. Also, the DC50 in assay [3] is 10 to 50 nM. Also, the Dmax in assay [3] is > 75%.

Regarding `NC(=O)c1c(-c2ccc(Oc3ccccc3)cc2)nn2c1NCC[C@H]2C1CCN(CC2CCN(C(=O)N3CCC(N4CCC(c5ccc6c(c5)CN(C5CCC(=O)NC5=O)C6=O)CC4)CC3)CC2)CC1` (stereo partly drawn) [Compound 408, (7S)-7-(1-((1-(4-(2-(2,6-dioxopiperidin-3-yl)-1-oxoisoindolin-5-yl)-[1,4′-bipiperidine]-1′-carbonyl)piperidin-4-yl)methyl)piperidin-4-yl)-2-(4-phenoxyphenyl)-4,5,6,7-tetrahydropyrazolo[1,5-a]pyrimidine-3-carboxamide], the IC50 in assay [1] was > 10000 nM. Also, the IC50 in assay [2] lay in the range of 1000 to 10000 nM. In assay [3], the DC50 is 10 to 50 nM and the Dmax is > 75%.

For the molecule `NC(=O)c1c(-c2ccc(Oc3ccccc3)cc2)nn2c1NCC[C@H]2C1CCN(CC2CCN(C(=O)N3CCC(CN4CCN(c5ccc6c(c5)C(=O)N(C5CCC(=O)NC5=O)C6=O)CC4)CC3)CC2)CC1` (stereo partly drawn) [Compound 409, (7S)-7-(1-((1-(4-((4-(2-(2,6-dioxopiperidin-3-yl)-1,3-dioxoisoindolin-5-yl)piperazin-1-yl)methyl)piperidine-1-carbonyl)piperidin-4-yl)methyl)piperidin-4-yl)-2-(4-phenoxyphenyl)-4,5,6,7-tetrahydropyrazolo[1,5-a]pyrimidine-3-carboxamide], the IC50 in assay [1] is < 1000 nM; in assay [2], 1000 to 10000 nM. For the same molecule, in assay [3], the DC50 was < 10 nM. The Dmax in assay [3] was > 90%.

`NC(=O)c1c(-c2ccc(Oc3ccccc3)cc2)nn2c1NCC[C@H]2C1CCN(CC2CCN(C(=O)N3CCC(CN4CCN(c5ccc6c(c5)CN(C5CCC(=O)NC5=O)C6=O)CC4)CC3)CC2)CC1` (stereo partly drawn) [Compound 410, (7S)-7-(1-((1-(4-((4-(2-(2,6-dioxopiperidin-3-yl)-1-oxoisoindolin-5-yl)piperazin-1-yl)methyl)piperidine-1-carbonyl)piperidin-4-yl)methyl)piperidin-4-yl)-2-(4-phenoxyphenyl)-4,5,6,7-tetrahydropyrazolo[1,5-a]pyrimidine-3-carboxamide]: the IC50 in assay [1] fell in the range of 1000 to 10000 nM. Also, the IC50 in assay [2] was in the range of 1000 to 10000 nM. Further, in assay [3], the DC50 was < 10 nM and the Dmax was > 90%.

For the molecule `NC(=O)c1c(-c2ccc(Oc3ccccc3)cc2)nn2c1NCC[C@H]2C1CCN(CC2CCN(C(=O)N3CCN(CC4CCN(c5ccc6c(c5)C(=O)N(C5CCC(=O)NC5=O)C6=O)CC4)CC3)CC2)CC1` (stereo partly drawn) [Compound 411, (7S)-7-(1-((1-(4-((1-(2-(2,6-dioxopiperidin-3-yl)-1,3-dioxoisoindolin-5-yl)piperidin-4-yl)methyl)piperazine-1-carbonyl)piperidin-4-yl)methyl)piperidin-4-yl)-2-(4-phenoxyphenyl)-4,5,6,7-tetrahydropyrazolo[1,5-a]pyrimidine-3-carboxamide], in assay [1], the IC50 was < 1000 nM. The IC50 in assay [2] was in the range of 1000 to 10000 nM. In addition, in assay [3], the DC50 is 10 to 50 nM and the maximal degradation (Dmax) was > 90%.

As for `NC(=O)c1c(-c2ccc(Oc3ccccc3)cc2)nn2c1NCC[C@H]2C1CCN(CC2CCN(C(=O)N3CCN(CC4CCN(c5ccc6c(c5)CN(C5CCC(=O)NC5=O)C6=O)CC4)CC3)CC2)CC1` (stereo partly drawn) [Compound 412, (7S)-7-(1-((1-(4-((1-(2-(2,6-dioxopiperidin-3-yl)-1-oxoisoindolin-5-yl)piperidin-4-yl)methyl)piperazine-1-carbonyl)piperidin-4-yl)methyl)piperidin-4-yl)-2-(4-phenoxyphenyl)-4,5,6,7-tetrahydropyrazolo[1,5-a]pyrimidine-3-carboxamide], in assay [1], the IC50 is 1000 to 10000 nM. Besides, the IC50 in assay [2] was < 1000 nM. In assay [3], the DC50 is 10 to 50 nM and the Dmax is > 90%.

`NC(=O)c1c(-c2ccc(Oc3ccccc3)cc2)nn2c1NCC[C@H]2C1CCN(CC2CCN(C(=O)N3CCC(CC4CCN(c5ccc6c(c5)CN(C5CCC(=O)NC5=O)C6=O)CC4)CC3)CC2)CC1` (stereo partly drawn) [Compound 414, (7S)-7-(1-((1-(4-((1-(2-(2,6-dioxopiperidin-3-yl)-1-oxoisoindolin-5-yl)piperidin-4-yl)methyl)piperidine-1-carbonyl)piperidin-4-yl)methyl)piperidin-4-yl)-2-(4-phenoxyphenyl)-4,5,6,7-tetrahydropyrazolo[1,5-a]pyrimidine-3-carboxamide]: the IC50 in assay [1] is < 1000 nM. The IC50 in assay [2] was < 1000 nM. Further, in assay [3], the DC50 is < 10 nM and the Dmax was > 90%.

On to `NC(=O)c1c(-c2ccc(Oc3ccccc3)cc2)nn2c1NCC[C@H]2C1CCN(CC2CCN(C(=O)N3CCC(CN4CCC(c5ccc6c(c5)C(=O)N(C5CCC(=O)NC5=O)C6=O)CC4)CC3)CC2)CC1` (stereo partly drawn) [Compound 415, (7S)-7-(1-((1-(4-((4-(2-(2,6-dioxopiperidin-3-yl)-1,3-dioxoisoindolin-5-yl)piperidin-1-yl)methyl)piperidine-1-carbonyl)piperidin-4-yl)methyl)piperidin-4-yl)-2-(4-phenoxyphenyl)-4,5,6,7-tetrahydropyrazolo[1,5-a]pyrimidine-3-carboxamide], for which the IC50 in assay [1] is < 1000 nM. The IC50 in assay [2] lay in the range of 1000 to 10000 nM. Moreover, in assay [3], the DC50 is 10 to 50 nM and the Dmax is > 75%.

Turning to `NC(=O)c1c(-c2ccc(Oc3ccccc3)cc2)nn2c1NCC[C@H]2C1CCN(CC2CCN(C(=O)N3CCC(CN4CCC(c5ccc6c(c5)CN(C5CCC(=O)NC5=O)C6=O)CC4)CC3)CC2)CC1` (stereo partly drawn) [Compound 416, (7S)-7-(1-((1-(4-((4-(2-(2,6-dioxopiperidin-3-yl)-1-oxoisoindolin-5-yl)piperidin-1-yl)methyl)piperidine-1-carbonyl)piperidin-4-yl)methyl)piperidin-4-yl)-2-(4-phenoxyphenyl)-4,5,6,7-tetrahydropyrazolo[1,5-a]pyrimidine-3-carboxamide], the IC50 in assay [1] and in assay [2] was 1000 to 10000 nM in each case. Moreover, the DC50 in assay [3] is 10 to 50 nM. In assay [3], the Dmax is > 75%.

In general, DC50 refers to the concentration at which degradation of the target reaches its halfway point. By Dmax is commonly meant the greatest extent of degradation seen.
